According to US9249147B2, “Tyrosine kinase inhibitors” (CHEMBRIDGE CORPORATION, priority 2008, dated 2016):

What was measured:
[1] = target: ALK (Homo sapiens, UniProt Q9UM73); assay: ALK kinase assay (Kinase-Glo / AlphaScreen, purified NPM-ALK); type: biochemical; design: fused to the complete intracytoplasmic portion of ALK containing the functional tyrosine kinase domain; 6xHis; made in house; host or cells: insect cells; the other entry of the earlier key: NPM1 (P06748, Nucleophosmin); settings: Table 1; read-out: ALK IC50
[2] = target: T1, IGF1R (Homo sapiens, UniProt P08069); assay: IGF1R kinase assay; type: biochemical; settings: Table 1; read-out: IGF1R IC50
T1 construct: 6×His- or GST-tagged kinase domain fragments of the corresponding RTKs expressed in baculovirus system; host or cells: baculovirus system
Description: To determine inhibition of several tyrosine kinases, such as IGF1R, InsR, Alk, TrkA and Jak2, kinase assays are conducted using either Kinase-Glo (Promega) or AlphaScreen (PerkinElmer) kinase assay platforms. The Kinase-Glo Luminescent Kinase Assay is a homogeneous method for measuring kinase activity by determining the amount of ATP remaining after a kinase reaction. The luminescent signal is proportional to the amount of ATP and inversely proportional to the amount of kinase activity. Tyrosine kinase PT66 AlphaScreen Assay is a high-sensitivity homogeneous, anti-phosphotyrosine antibody-mediated luminescent proximity method measuring incorporation of phosphate in synthetic poly(Glu-Tyr) substrate. The kinase preparations used consist of purified recombinant, 6×His- or GST-tagged kinase domain fragments of the corresponding RTKs expressed in baculovirus system.
Compounds with a range of concentrations 40 μM, 20 μM, 10 μM, 5 μM, 2.5 μM, 1.25 μM, 0.625 μM, 0.3125 μM, 0.15625 μM and 0.078125 μM were incubated with NPM-ALK, which was produced in insect cells as a 6×HIS-tagged fusion protein and purified using nickel-charged resin chromatography, for 30 minutes at RT in the presence of 10 μM ATP and 7.0 ng biotinylated poly-GT. A 1:1 mixture of […] and donor beads was then added to the reaction and incubated for an additional 60 minutes at RT. The assay was conducted on a MultiPROBE liquid handling workstation (PerkinElmer) in a 384-well plate format with a total reaction volume of 40 μL per well. Working stocks of all compounds were dissolved in 100% DMSO and serial dilutions of the compounds were performed using kinase buffer (50 mM Tris-HCl (pH 7.5), 5 mM MgCl2, 5 mM MnCl2, 2 mM DTT (added freshly before use), 0.01% Tween-20) containing 5% DMSO. […] Data were collected as optical readings at 520-680 nm on a Fusion™ microplate analyzer (PerkinElmer), and IC50 and Ki values calculated using PRISM3.0 software (GraphPad Software, Inc., San Diego, Calif.). The same assay was also used with minor modifications to assess the IC50 and Ki values for selected compounds against five other tyrosine kinases (IRK, IGF1R, Flt3, Abl, Src), all of which were purchased from commercial vendors. PolyGT-Biotin was bought from CIS Biointernational Cat. #61GT0BLD; ATP—from Sigma Cat. # A7699; sodium orthovanadate—from Sigma Cat. #S-6508; phosphotyrosine (PT66) assay kit from PerkinElmer Cat. #6760602M; automated workstation tips (20 μL): PerkinElmer Cat. #6000657; and OptiPlate-384 (white)—from PerkinElmer Cat. #6007299.

ALK, sequence (Q9UM73 with tags, fused parts or gaps): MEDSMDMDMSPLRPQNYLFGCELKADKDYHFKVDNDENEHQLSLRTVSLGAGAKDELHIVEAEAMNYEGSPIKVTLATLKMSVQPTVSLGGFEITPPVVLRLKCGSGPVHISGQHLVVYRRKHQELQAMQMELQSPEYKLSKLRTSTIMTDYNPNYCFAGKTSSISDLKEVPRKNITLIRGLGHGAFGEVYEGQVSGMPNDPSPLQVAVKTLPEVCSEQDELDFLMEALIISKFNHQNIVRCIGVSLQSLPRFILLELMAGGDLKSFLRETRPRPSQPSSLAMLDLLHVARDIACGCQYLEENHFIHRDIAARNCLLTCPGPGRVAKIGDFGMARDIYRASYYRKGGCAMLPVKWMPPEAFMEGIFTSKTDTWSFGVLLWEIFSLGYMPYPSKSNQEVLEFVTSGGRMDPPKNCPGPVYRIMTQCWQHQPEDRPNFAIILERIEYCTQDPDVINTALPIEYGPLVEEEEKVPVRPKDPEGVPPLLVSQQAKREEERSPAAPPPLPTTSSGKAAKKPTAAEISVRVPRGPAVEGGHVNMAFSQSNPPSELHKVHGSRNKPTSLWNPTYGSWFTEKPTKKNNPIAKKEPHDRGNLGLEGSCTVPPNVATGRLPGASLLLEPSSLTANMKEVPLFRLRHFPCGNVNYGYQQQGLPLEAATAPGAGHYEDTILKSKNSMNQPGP
T1 sequence (P08069 999-1274 limits assumed): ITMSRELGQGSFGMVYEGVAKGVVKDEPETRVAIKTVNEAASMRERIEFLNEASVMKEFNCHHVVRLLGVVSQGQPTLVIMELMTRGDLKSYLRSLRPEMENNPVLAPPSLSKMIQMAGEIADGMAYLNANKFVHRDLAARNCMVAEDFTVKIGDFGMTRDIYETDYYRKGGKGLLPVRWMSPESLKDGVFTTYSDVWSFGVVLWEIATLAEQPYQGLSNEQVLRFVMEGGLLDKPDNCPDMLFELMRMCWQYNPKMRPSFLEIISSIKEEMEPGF

IC50 [1]	IC50 [2]	Structure (SMILES)
> 1000 nM	–	CN1CCC(N2C(=O)c3cc4nc(-c5c(N[C@H](CO)Cc6ccccc6)cc[nH]c5=O)[nH]c4cc3C2=O)CC1
> 1000 nM	–	COC[C@H](Cc1ccccc1)Nc1cc[nH]c(=O)c1-c1nc2cc3c(cc2[nH]1)C(=O)N(C1CCN(C)CC1)C3=O
> 1000 nM	–	COC[C@@H](Cc1ccccc1)Nc1cc[nH]c(=O)c1-c1nc2cc3c(cc2[nH]1)C(=O)N(C1CCN(C)CC1)C3=O
100 to 250 nM	250 to 1000 nM	CC(Cc1cccs1)Nc1cc[nH]c(=O)c1-c1nc2cc3c(cc2[nH]1)CN(CCCN1CCCC1)C3=O (stereo not shown)
100 to 250 nM	–	CC(Cc1ccsc1)Nc1cc[nH]c(=O)c1-c1nc2cc3c(cc2[nH]1)C(=O)N(CCCN1CCCC1)C3=O (stereo not shown)
250 to 1000 nM	250 to 1000 nM	CC(Cc1ccsc1)Nc1cc[nH]c(=O)c1-c1nc2cc3c(cc2[nH]1)C(=O)N(CCCN1CCCC1)C3 (stereo not shown)
250 to 1000 nM	–	CCC(Cc1cccs1)Nc1cc[nH]c(=O)c1-c1nc2cc3c(cc2[nH]1)C(=O)N(CCCN1CCCC1)C3=O (stereo not shown)
> 1000 nM	–	CCC(Cc1cccs1)Nc1cc[nH]c(=O)c1-c1nc2cc3c(cc2[nH]1)C(=O)N(CCCN1CCCC1)C3 (stereo not shown)
> 1000 nM	> 1000 nM	Cc1noc(C)c1CC(C)Nc1cc[nH]c(=O)c1-c1nc2cc3c(cc2[nH]1)C(=O)N(CCCN1CCCC1)C3=O (stereo not shown)
> 1000 nM	> 1000 nM	Cc1noc(C)c1CC(C)Nc1cc[nH]c(=O)c1-c1nc2cc3c(cc2[nH]1)C(=O)N(CCCN1CCCC1)C3 (stereo not shown)
100 to 250 nM	10 to 100 nM	C[C@@H](Cc1cccs1)Nc1cc[nH]c(=O)c1-c1nc2cc3c(cc2[nH]1)C(=O)N(C1CCN(C)CC1)C3
> 1000 nM	250 to 1000 nM	C[C@H](Cc1cccs1)Nc1cc[nH]c(=O)c1-c1nc2c(Cl)c3c(cc2[nH]1)C(=O)N(C1CCN(C)CC1)C3
250 to 1000 nM	100 to 250 nM	C[C@H](Cc1cccs1)Nc1cc[nH]c(=O)c1-c1nc2cc3c(c(Cl)c2[nH]1)C(=O)N(C1CCN(C)CC1)C3
> 1000 nM	100 to 250 nM	Cc1ccc(CC(C)Nc2cc[nH]c(=O)c2-c2nc3cc4c(cc3[nH]2)C(=O)N(CCCN2CCCC2)C4)s1 (stereo not shown)
100 to 250 nM	100 to 250 nM	Cc1ccsc1CC(C)Nc1cc[nH]c(=O)c1-c1nc2cc3c(cc2[nH]1)C(=O)N(CCCN1CCCC1)C3 (stereo not shown)
250 to 1000 nM	250 to 1000 nM	Cc1csc(CC(C)Nc2cc[nH]c(=O)c2-c2nc3cc4c(cc3[nH]2)C(=O)N(CCCN2CCCC2)C4)c1 (stereo not shown)
> 1000 nM	250 to 1000 nM	Cc1cc(CC(C)Nc2cc[nH]c(=O)c2-c2nc3cc4c(cc3[nH]2)C(=O)N(CCCN2CCCC2)C4)sc1C (stereo not shown)
> 1000 nM	100 to 250 nM	Cc1cc(C)c(CC(C)Nc2cc[nH]c(=O)c2-c2nc3cc4c(cc3[nH]2)C(=O)N(CCCN2CCCC2)C4)s1 (stereo not shown)
> 1000 nM	> 1000 nM	CC(Cc1cc2ccccc2s1)Nc1cc[nH]c(=O)c1-c1nc2cc3c(cc2[nH]1)C(=O)N(CCCN1CCCC1)C3 (stereo not shown)
> 1000 nM	> 1000 nM	CCc1ccc(CC(C)Nc2cc[nH]c(=O)c2-c2nc3cc4c(cc3[nH]2)C(=O)N(CCCN2CCCC2)C4)s1 (stereo not shown)
> 1000 nM	> 1000 nM	COc1ccc(-c2ccc(CC(C)Nc3cc[nH]c(=O)c3-c3nc4cc5c(cc4[nH]3)C(=O)N(CCCN3CCCC3)C5)s2)cc1 (stereo not shown)
> 1000 nM	> 1000 nM	CC(Cc1ccc(-c2ccccc2)s1)Nc1cc[nH]c(=O)c1-c1nc2cc3c(cc2[nH]1)C(=O)N(CCCN1CCCC1)C3 (stereo not shown)
250 to 1000 nM	250 to 1000 nM	CC(Cc1ccc(Cl)s1)Nc1cc[nH]c(=O)c1-c1nc2cc3c(cc2[nH]1)C(=O)N(CCCN1CCCC1)C3 (stereo not shown)
250 to 1000 nM	250 to 1000 nM	COc1ccsc1C[C@H](C)Nc1cc[nH]c(=O)c1-c1nc2cc3c(cc2[nH]1)CN(CCCN1CCCC1)C3=O
100 to 250 nM	250 to 1000 nM	C[C@H](Nc1cc[nH]c(=O)c1-c1nc2cc3c(cc2[nH]1)C(=O)N(CCCN1CCCC1)C3=O)[C@H](O)c1ccccc1

IC50 [1]	IC50 [2]	Structure (SMILES)
100 to 250 nM	250 to 1000 nM	C[C@@H](Cc1cccs1)Nc1cc[nH]c(=O)c1-c1nc2cc3c(cc2[nH]1)C(=O)N(CCN1CCCC1)C3=O
100 to 250 nM	250 to 1000 nM	C[C@@H](Cc1sccc1Cl)Nc1cc[nH]c(=O)c1-c1nc2cc3c(cc2[nH]1)C(=O)N(CCN1CCCC1)C3=O
100 to 250 nM	250 to 1000 nM	Cc1ccsc1C[C@H](C)Nc1cc[nH]c(=O)c1-c1nc2cc3c(cc2[nH]1)CN(CCN1CCS(=O)(=O)CC1)C3=O
100 to 250 nM	> 1000 nM	Cc1ccsc1C[C@H](C)Nc1cc[nH]c(=O)c1-c1nc2cc3c(cc2[nH]1)C(=O)N(CCN(C)CCS(C)(=O)=O)C3=O
10 to 100 nM	250 to 1000 nM	Cc1ccsc1C[C@H](C)Nc1cc[nH]c(=O)c1-c1nc2cc3c(cc2[nH]1)C(=O)N(CCN(C)CCS(C)(=O)=O)C3
10 to 100 nM	> 1000 nM	Cc1ccccc1C[C@H](C)Nc1cc[nH]c(=O)c1-c1nc2cc3c(cc2[nH]1)C(=O)N(CCN1CCCC1)C3=O
10 to 100 nM	250 to 1000 nM	Cc1ccccc1C[C@H](C)Nc1cc[nH]c(=O)c1-c1nc2cc3c(cc2[nH]1)CN(CCN1CCCC1)C3=O
100 to 250 nM	> 1000 nM	C[C@@H](Cc1ccco1)Nc1cc[nH]c(=O)c1-c1nc2cc3c(cc2[nH]1)C(=O)N(CCN1CCCC1)C3=O
100 to 250 nM	250 to 1000 nM	C[C@@H](Cc1ccco1)Nc1cc[nH]c(=O)c1-c1nc2cc3c(cc2[nH]1)CN(CCN1CCCC1)C3=O
100 to 250 nM	250 to 1000 nM	CCN1CCC[C@@H]1CN1Cc2cc3nc(-c4c(N[C@@H](C)Cc5sccc5C)cc[nH]c4=O)[nH]c3cc2C1=O
10 to 100 nM	100 to 250 nM	CCN1CCC[C@H]1CN1Cc2cc3nc(-c4c(N[C@@H](C)Cc5sccc5C)cc[nH]c4=O)[nH]c3cc2C1=O
10 to 100 nM	> 1000 nM	C[C@@H](Cc1sccc1Cl)Nc1cc[nH]c(=O)c1-c1nc2cc3c(cc2[nH]1)C(=O)N([C@@H](C)CN(C)C)C3=O
10 to 100 nM	> 1000 nM	C[C@H](CN(C)C)N1C(=O)c2cc3nc(-c4c(N[C@@H](C)Cc5sccc5Cl)cc[nH]c4=O)[nH]c3cc2C1=O
10 to 100 nM	> 1000 nM	C[C@@H](Cc1sccc1Cl)Nc1cc[nH]c(=O)c1-c1nc2cc3c(cc2[nH]1)C(=O)N(C[C@H](C)N(C)C)C3=O
10 to 100 nM	100 to 250 nM	C[C@@H](Cc1sccc1Cl)Nc1cc[nH]c(=O)c1-c1nc2cc3c(cc2[nH]1)C(=O)N([C@@H](C)CN(C)C)C3
10 to 100 nM	> 1000 nM	C[C@H](CN1C(=O)c2cc3nc(-c4c(N[C@@H](C)Cc5sccc5Cl)cc[nH]c4=O)[nH]c3cc2C1=O)N(C)C
10 to 100 nM	100 to 250 nM	C[C@H](CN(C)C)N1Cc2cc3nc(-c4c(N[C@@H](C)Cc5sccc5Cl)cc[nH]c4=O)[nH]c3cc2C1=O
< 10 nM	250 to 1000 nM	C[C@@H](Cc1sccc1Cl)Nc1cc[nH]c(=O)c1-c1nc2cc3c(cc2[nH]1)C(=O)N(C[C@H](C)N(C)C)C3
< 10 nM	250 to 1000 nM	C[C@H](CN1Cc2cc3nc(-c4c(N[C@@H](C)Cc5sccc5Cl)cc[nH]c4=O)[nH]c3cc2C1=O)N(C)C
100 to 250 nM	250 to 1000 nM	C[C@@H](Cc1ccccc1F)Nc1cc[nH]c(=O)c1-c1nc2cc3c(cc2[nH]1)CN(CCN1CCCC1)C3=O
> 1000 nM	> 1000 nM	Cc1c(C[C@H](C)Nc2cc[nH]c(=O)c2-c2nc3cc4c(cc3[nH]2)CN(CCN2CCCC2)C4=O)ccc(F)c1F
> 1000 nM	> 1000 nM	Cc1c(C[C@H](C)Nc2cc[nH]c(=O)c2-c2nc3cc4c(cc3[nH]2)CN(CCN(C)C)C4=O)ccc(F)c1F
250 to 1000 nM	250 to 1000 nM	C[C@@H](Cc1cc(F)cc(F)c1F)Nc1cc[nH]c(=O)c1-c1nc2cc3c(cc2[nH]1)CN(CCN1CCCC1)C3
> 1000 nM	250 to 1000 nM	Cc1c(F)cc(F)cc1C[C@H](C)Nc1cc[nH]c(=O)c1-c1nc2cc3c(cc2[nH]1)CN(CCN1CCCC1)C3=O
100 to 250 nM	250 to 1000 nM	Cc1c(F)cc(F)cc1C[C@H](C)Nc1cc[nH]c(=O)c1-c1nc2cc3c(cc2[nH]1)CN(CCN(C)C)C3=O
